In US3974184A, “Microbial production of certain isoflavones” (Zaidan Hojin Biseibutsu Kagaku Kenkyu Kai, priority 1973, dated 1976):
Entries after “also recorded” stand apart in the source; their conditions may differ. Where two headings read alike, the source gives them in different places.

Key:
[1] = test system: tyrosine hydroxylase; assay: Inhibition of tyrosine hydroxylase; format: biochemical; conditions: at 100 .nu./cc
[2] = test system: spontaneously hypertensive rats; assay: Blood pressure lowering action in spontaneously hypertensive rats; format: in vivo; conditions: for blood pressure lowering action: abdominal cavity; for blood pressure lowering: in words
Text: The inventors also examined the blood pressure lowering action of the compounds (I), (II) and (III) by administering them in the abdominal cavity of spontaneously hypertensive rats.

[3] = test system: bacteria; assay: Inhibiting action against growth of bacteria; format: cell-based; conditions: at 100 .nu./cc
[4] = biological target: T1, DOPA decarboxylase (Homo sapiens, UniProt P20711); assay: Inhibition of DOPA decarboxylase (method of Davis and Awapara); format: biochemical; conditions: for inhibiting action against DOPA decarboxylase: in words; for IC50: read-out: concentration for 50% inhibition of DOPA decarboxylase (converted)
T1 sequence (P20711 1-480): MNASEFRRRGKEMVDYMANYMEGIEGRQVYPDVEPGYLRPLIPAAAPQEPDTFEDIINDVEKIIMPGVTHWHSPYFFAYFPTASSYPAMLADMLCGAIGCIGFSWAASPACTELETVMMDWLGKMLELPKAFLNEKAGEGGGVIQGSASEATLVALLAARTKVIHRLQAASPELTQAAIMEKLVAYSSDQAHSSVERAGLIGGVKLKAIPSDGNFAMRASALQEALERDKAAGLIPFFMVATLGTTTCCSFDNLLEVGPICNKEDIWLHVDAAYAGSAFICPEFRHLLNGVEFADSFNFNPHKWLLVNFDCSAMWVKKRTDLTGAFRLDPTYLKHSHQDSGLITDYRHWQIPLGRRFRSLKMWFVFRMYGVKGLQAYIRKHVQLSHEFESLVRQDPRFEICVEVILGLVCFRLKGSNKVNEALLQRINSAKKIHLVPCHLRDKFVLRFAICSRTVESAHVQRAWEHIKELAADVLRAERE
Text: It has been reported heretofore that an inhibitor against COMT delays the metabolism or rate of destruction of adrenaline, noradrenaline, etc. in the human body and, therefore, serves to prolong and promote their blood pressure elevating action. These inhibitors may also be used as curative or palliative medicines for diseases such as depression which is considered to be caused when catechol amines present in the human body are reduced in quantity. There has been much argument about etiological causes of schizophrenia. One hypothesis says that the schizophrenia is caused by the production of abnormally methylated bioamines (methylated catechol amines and serotonin) within the brain. Especially, hallucination of schizophrenia is said to be caused by abnormally methylated catechol amines (Ref. "Amines and Schizophrenia" by H. E. Himwich, S. S. Kety and J. R. Smythies, 1967, Pergamon Press, Oxford). The inhibitors of COMT may therefore be used as curative medicines for schizophrenia and for the associated hallucination. On the other hand, the anti-hemochlasis of isoflavones has been reported by Murata and Ikehata ("Agr. Biol. Chem." Vol. 32, No. 6, 1968, pp. 740-746) and the cholesterol deposition preventing action of isoflavones has been reported by G. W. Moersch, D. F. Morrow and W. A. Neuklis ("J. Med. Chem." 10(2), 1967, pp. 154-158). […] It will therefore be possible to use the compounds (I), (II) and (III) as curative medicines for diseases such as hypertension and arteriosclerosis and also as economizers in combination with DOPA for treating Parkinson's disease. […] This means that there is a possibility to use the compounds (I) and (II) as curative medicines for inflammation and allergy in man.

[5] = biological target: T2, histidine decarboxylase (Homo sapiens, UniProt P19113); assay: Inhibition of histidine decarboxylase (formation of histamine-2-14C); format: biochemical; conditions: for inhibiting action against histidine decarboxylase: in words; for IC50: read-out: concentration for 50% inhibition ratio of histidine decarboxylase (converted)
T2 sequence (P19113 1-662): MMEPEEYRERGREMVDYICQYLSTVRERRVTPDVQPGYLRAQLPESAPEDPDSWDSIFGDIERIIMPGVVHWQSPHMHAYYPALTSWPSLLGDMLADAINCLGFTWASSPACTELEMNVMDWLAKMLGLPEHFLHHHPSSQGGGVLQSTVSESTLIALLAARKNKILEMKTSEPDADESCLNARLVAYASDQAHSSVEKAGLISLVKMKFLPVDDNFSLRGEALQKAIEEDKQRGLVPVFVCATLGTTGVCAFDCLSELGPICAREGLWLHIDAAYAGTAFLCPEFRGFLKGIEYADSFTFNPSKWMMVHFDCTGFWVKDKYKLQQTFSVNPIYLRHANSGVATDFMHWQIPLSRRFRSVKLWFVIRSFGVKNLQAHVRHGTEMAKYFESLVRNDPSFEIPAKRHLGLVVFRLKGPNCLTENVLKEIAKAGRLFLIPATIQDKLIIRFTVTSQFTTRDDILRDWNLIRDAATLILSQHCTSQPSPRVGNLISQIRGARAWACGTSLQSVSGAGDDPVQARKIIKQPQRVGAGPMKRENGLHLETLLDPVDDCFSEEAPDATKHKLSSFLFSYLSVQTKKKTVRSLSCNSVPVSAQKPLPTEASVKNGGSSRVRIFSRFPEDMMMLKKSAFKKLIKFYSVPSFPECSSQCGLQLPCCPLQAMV
Procedure: This inhibition is measured in the following manner:
The reaction liquid is prepared from 2.5 × 10^-^4 mole of L-histidine-2-^14 C (1.0 × 10^5 cpm), 3.7 × 10^-^5 mole of pyridoxal phosphate, 0.1 cc of histidine decarboxylase (protein content, 1 mg/cc), 0.1 cc of 0.67 mole phosphate buffer solution (pH 6.8) and sample solution. To this mixture there is added distilled water until 1 cc total volume of reaction liquid is obtained. The thusly prepared reaction liquid is then allowed to react for 2 hours at 37° C. and the formed histamine-2-^14 C is adsorbed on ammonia type "Amberlite CG-50". After washing the "Amberlite CG-50" with water, the adsorbed histamine is eluted with 1 N aqueous ammonia and a quantity of elute is sampled to measure its radioactivity by use of a liquid scintillation counter. The thusly measured radioactivity tells the quantity of formed histamine, so that the inhibition against histidine decarboxylase can be determined.

[6] = test system: fungi; assay: Inhibiting action against growth of fungi; format: cell-based; conditions: at 100 .nu./cc

Compound	inhibiting action against tyrosine hydroxylase [1]	blood pressure lowering action ([2]; 12.5 mg./kg., after 1 hour) [%]	blood pressure lowering action ([2]; 12.5 mg./kg., after 3 hours) [%]	blood pressure lowering action ([2]; 12.5 mg./kg., after 6 hours) [%]	blood pressure lowering action ([2]; 12.5 mg./kg., after 24 hours) [%]	blood pressure lowering action ([2]; 50 mg./kg., after 1 hour) [%]	blood pressure lowering action ([2]; 50 mg./kg., after 3 hours) [%]	blood pressure lowering action ([2]; 50 mg./kg., after 6 hours) [%]	blood pressure lowering action ([2]; 50 mg./kg., after 24 hours) [%]	blood pressure lowering [2]	inhibiting action against the growth of bacteria [3]	inhibiting action against DOPA decarboxylase [4]	IC50 [4] [µM]	inhibiting action against histidine decarboxylase [5]	IC50 ([5]; printed in parentheses) [µM]	IC50 [5] [µM]	inhibiting action against the growth of fungi [6]	blood pressure lowering action ([2]; 50 mg./kg., after 48 hours) [%]	also measured
COc1ccc(-c2coc3cc(O)c(OC)c(O)c3c2=O)cc1O [Compound (I), 3',5,7-trihydroxy-4',6-dimethoxy-isoflavone]	no inhibiting action	13.6	10.7	15.8	7.8	20.8	16.4	35.0	3.8	lowered the blood pressure	no inhibiting action	powerful inhibiting action	37.8	inhibit; also recorded: inhibiting action	18	18.2	no inhibiting action		
COc1ccc(-c2coc3c(OC)c(O)cc(O)c3c2=O)cc1O [Compound (II), 3',5,7-trihydroxy-4',8-dimethoxy-isoflavone]	no inhibiting action	10.4	34.4	32.8	18.0	22.3	35.9	35.3	23.9	lowered the blood pressure	no inhibiting action	powerful inhibiting action	15.1	inhibit; also recorded: inhibiting action	4.5	4.54	no inhibiting action	16.3	blood pressure lowering action ([2]; 3.1 mg./kg., after 1 hour): 21.0%; blood pressure lowering action ([2]; 3.1 mg./kg., after 3 hours): 26.3%; blood pressure lowering action ([2]; 3.1 mg./kg., after 6 hours): 28.0%; blood pressure lowering action ([2]; 3.1 mg./kg., after 24 hours): 22.0%; blood pressure lowering action ([2]; 3.1 mg./kg., after 48 hours): 13.4%; blood pressure lowering action ([2]; 12.5 mg./kg., after 48 hours): 18.0%
COc1ccc(-c2coc3c(OC)c(O)c(OC)cc3c2=O)cc1O [Compound (III), 3',7-dihydroxy-4',6,8-trimethoxy-isoflavone]	no inhibiting action					11.9	13.0	17.3	7.0	lowered the blood pressure	no inhibiting action	no inhibiting action		inhibiting action			no inhibiting action	3.0	inhibition of DOPA decarboxylase ([4]; at a concentration as high as 100 .nu./cc): no inhibition; inhibition at 100 µg/mL ([5]; 2 h, at 100 .nu./cc, read-out: inhibition ratio against histidine decarboxylase): ~31.9%
